Molecules are shown by their SMILES. pIC50: −log10 of the molar value. Structures can show the parent of a compound that is named as a salt.

We go through 19 compounds from patent US9006232B2, “Pyrimidone derivatives” (Mitsubishi Tanabe Pharma Corporation, priority 2009, dated 2015).

In the first experiment the target is bovine cerebral TPK1 (Bos taurus, UniProt A0A059UE90). In words: Inhibitory activity against P-GS1 phosphorylation by bovine cerebral TPK1. Format: biochemical.
bovine cerebral TPK1, sequence (A0A059UE90 1-419): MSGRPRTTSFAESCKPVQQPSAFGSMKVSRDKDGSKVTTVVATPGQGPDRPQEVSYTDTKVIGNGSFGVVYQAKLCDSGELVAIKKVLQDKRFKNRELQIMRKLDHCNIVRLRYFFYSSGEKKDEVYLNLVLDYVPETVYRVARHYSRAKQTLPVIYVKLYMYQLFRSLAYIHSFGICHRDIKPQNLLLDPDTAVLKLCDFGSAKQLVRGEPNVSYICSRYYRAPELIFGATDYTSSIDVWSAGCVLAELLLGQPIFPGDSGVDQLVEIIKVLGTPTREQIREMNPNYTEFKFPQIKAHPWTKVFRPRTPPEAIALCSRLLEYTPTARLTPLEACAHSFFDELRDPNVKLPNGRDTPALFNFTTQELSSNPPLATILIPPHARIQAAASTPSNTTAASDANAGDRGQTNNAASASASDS
Conditions: not given
The procedure:
Inhibitory Activity of the Medicament of the Present Invention Against P-GS1 Phosphorylation by Bovine Cerebral TPK1 […] The phosphorylation was started by adding ATP, and the reaction was conducted at 25° C. for 2 hours, and then stopped by adding 21% perchloric acid on ice cooling. The reaction mixture was centrifuged at 12,000 rpm for 5 minutes and adsorbed on P81 paper (Whatmann), and then the paper was washed four times with 75 mM phosphoric acid, three times with water and once with acetone. The paper was dried, and the residual radioactivity was measured using a liquid scintillation counter.
Compound `Cn1c(O[C@H]2C[C@H]3CC[C@@H](C2)N3)nc(-c2ccncn2)cc1=O` [Compound No. 2.101, endo-2-(8-Aza-bicyclo[3.2.1]oct-3-yloxy)-1-methyl-1H-[4,4′] bipyrimidinyl-6-one] showed a pIC50 of 6.47 to 6.94.

The same experiment, now with this note: P-GS1 phosphorylation, 41.7 μM [γ-32P] ATP, 25° C., 2 hours; read-out: IC50.
Consider `CN(C)Cc1ccc(C(=O)N2CCC(Oc3nc(-c4ccncn4)cc(=O)n3C)CC2)cc1` [Compound No. 1.601, 2-[1-(4-Dimethylaminomethyl-benzoyl)piperidin-4-yloxy]-1-methyl-1H-[4,4′]bipyrimidinyl-6-one], for which the negative logarithm of the IC50 (pIC50) was 7.40.

Consider `Cn1c(OC2CCCN(c3ccc(C#N)cc3)CC2)nc(-c2ccncn2)cc1=O` (stereo not shown) [Compound No. 1.701, 4-[4-(1-Methyl-6-oxo-1,6-dihydro-[4,4′]bipyrimidinyl-2-yloxy)azepan-1-yl]benzonitrile], for which the negative-log IC50 (pIC50) is 7.52.

As to `CC1CCCCC1Oc1nc(-c2ccncn2)cc(=O)n1C` (stereo not shown) [Compound No. 1.801, 1-Methyl-2-(2-methyl-cyclohexyloxy)-1H-[4,4′] bipyrimidinyl-6-one], the pIC50 is 7.24.

Take `Cn1c(O[C@H]2CC[C@H](c3ccc(CO)cc3)CC2)nc(-c2ccncn2)cc1=O` [Compound No. 1.901, 2-[trans-4-(4-Hydroxymethyl-phenyl)cyclohexyloxy]-1-methyl-1H-[4,4′]bipyrimidinyl-6-one]: the negative-log IC50 (pIC50) is 6.94.

For the compound `Cn1c(O[C@H]2CC[C@@H](c3ccc(CO)cc3)CC2)nc(-c2ccncn2)cc1=O` [Compound No. 1.902, 2-[cis-4-(4-Hydroxymethyl-phenyl)cyclohexyloxy]-1-methyl-1H-[4,4′]bipyrimidinyl-6-one], the negative logarithm of the IC50 (pIC50) was 6.91. The same measure, in the same setting: next, `CN1CCN(Cc2ccc([C@H]3CC[C@H](Oc4nc(-c5ccncn5)cc(=O)n4C)CC3)cc2)CC1` [Compound No. 1.903, 1-Methyl-2-{trans-4-[4-(4-methyl-piperazin-1-ylmethyl)phenyl]cyclohexyloxy}-1H-[4,4′] bipyrimidinyl-6-one]: 8.11; `CN1CCN(Cc2ccc([C@H]3CC[C@@H](Oc4nc(-c5ccncn5)cc(=O)n4C)CC3)cc2)CC1` [Compound No. 1.904, 1-Methyl-2-{cis-4-[4-(4-methyl-piperazin-1-ylmethyl)phenyl]cyclohexyloxy}-1H-[4,4′] bipyrimidinyl-6-one]: 7.52.

For `CCCCCCc1ccc(Oc2nc(-c3ccncn3)cc(=O)n2C)cc1` [Compound No. 2.001, 2-(4-Hexylphenoxy)-1-methyl-1H[4,4′]bipyrimidinyl-6one], the pIC50 was 6.37. For the compound `Cn1c(O[C@H]2C[C@H]3CC[C@@H](C2)N3c2ccc(F)cc2)nc(-c2ccncn2)cc1=O` [Compound No. 2.102, endo-2-[8-(4-Fluoro-phenyl)-8-aza-bicyclo[3.2.1]oct-3-yloxy]-1-methyl-1H-[4,4′]bipyrimidinyl-6-one], the pIC50 was 6.63. Regarding `Cn1c(OC[C@H]2CCCN2C(=O)Oc2ccccc2)nc(-c2ccncn2)cc1=O` [Compound No. 2.201, Phenyl (2R)-2-(1-methyl-6-oxo-1,6-dihydro-[4,4′]bipyrimidinyl-2-yloxymethyl)pyrrolidine-1-carboxylate], the pIC50 is 7.25.

As for `Cn1c(OC[C@H]2CCN(c3ccsc3)C2)nc(-c2ccncc2F)cc1=O` [Compound No. 2.206, 6-(3-Fluoro-pyridin-4-yl)-3-methyl-2-[(3S)-1-(thiophen-3-yl)pyrrolidin-3-ylmethoxy]-3H-pyrimidin-4-one], the pIC50 is 7.14. The same measure, in the same setting: next, `Cn1c(OC[C@H]2CCN(c3ccsc3)C2)nc(-c2ccncn2)cc1=O` [Compound No. 2.207, 1-Methyl-2-[(3S)-1-(thiophen-3-yl)pyrrolidin-3-ylmethoxy]-1H-[4,4]′bipyrimidinyl-6-one]: 6.51. Same read-out and setting: the figure for `Cn1c(OC[C@@H]2CCN(c3ccsc3)C2)nc(-c2ccncc2F)cc1=O` [Compound No. 2.208, 6-(3-Fluoro-pyridin-4-yl)-3-methyl-2-[(3R)-1-(thiophen-3-yl)pyrrolidin-3-ylmethoxy]-3H-pyrimidin-4-one] is 6.97.

With `Cn1c(OC[C@@H]2CCN(c3ccccc3)C2)nc(-c2ccncc2F)cc1=O` [Compound No. 2.211, 6-(3-Fluoro-pyridin-4-yl)-3-methyl-2-[(3R)-1-phenyl-pyrrolidin-3-ylmethoxy]-3H-pyrimidin-4-one], the pIC50 is 6.18. The same measure, in the same setting: next, `Cn1c(OCCc2ccc(CN3CCCCC3)cc2)nc(-c2ccncc2)cc1=O` [Compound No. 2.401, 3-Methyl-2-[2-(4-piperidin-1-ylmethyl-phenyl)ethoxy]-6-pyridin-4-yl-3H-pyrimidin-4-one dihydrochioride]: 6.96.

Consider `CN(C)Cc1ccc(CCOc2nc(-c3ccncc3)cc(=O)n2C)cc1` [Compound No. 2.402, 2-[2-(4-Dimethylaminomethyl-phenyl)ethoxy]-3-methyl-6-pyridin-4-yl-3H-pyrimidin-4-one dihydrochloride], for which the pIC50 was 6.82.

`Cn1c(OCC2(c3ccccc3)OCCO2)nc(-c2ccncn2)cc1=O` [Compound No. 2.501, 1-Methyl-2-(2-phenyl-[1,3]dioxolan-2-ylmethoxy)-1H-[4,4′] bipyrimidinyl-6-one]: the pIC50 is 6.41. Turning to `Cn1c(OCC(OC2CCCCO2)c2ccccc2)nc(-c2ccncn2)cc1=O` (stereo not shown) [Compound No. 2.502, 1-Methyl-2-[2-phenyl-2-(tetrahydro-pyran-2-yloxy)ethoxy]-1H-[4,4′]bipyrimidinyl-6-one], the negative logarithm of the IC50 (pIC50) was 6.46.
